The values that follow come from ChEMBL document CHEMBL1128418, “Synthesis and activity against multidrug resistance in Chinese hamster ovary cells of new acridone-4-carboxamides” (J Med Chem, 1995).

Assay [1] concerns CHRC5 cell line. Description: Reversal of sensitivity of multidrug resistant chinese hamster ovary cell line CHRC/5 expressed as concentration that restores 50% of cytotoxic activity of 5 ug/mL toward doxorubicin. The settings on record: Cricetulus griseus. Format: functional, cell-based.
Assay [2] relates to CHRC5 cell line. Description: Reversal of sensitivity of multidrug resistant chinese hamster ovary cell line CHRC/5 expressed as concentration that restores 50% of cytotoxic activity of 5 ug/mL toward doxorubicin; Not active. It is filed as functional, cell-based, Cricetulus griseus.
Assay [3] has as its system CHRC5 cell line. Description: Reversal of sensitivity of multidrug resistant chinese hamster ovary cell line CHRC/5 expressed as concentration that restores 50% of cytotoxic activity of 5 ug/mL toward doxorubicin; Toxic alone to cells at 5 uM. It is filed as functional, cell-based, Cricetulus griseus.

By EC50 is commonly meant the concentration at which the effect is half-maximal. As to `COc1cc2c(cc1OC)CN(CCCOc1ccc(NC(=O)c3cccc4c(=O)c5ccccc5[nH]c34)cc1)CC2`, in the assay on CHRC5 cell line [1] (read-out: EC50), the EC50 was found to be 50 nM. The same measure, in the same setting: the figure for `COc1ccccc1CN(C)CCOc1ccc(NC(=O)c2cccc3c(=O)c4ccccc4[nH]c23)cc1` is 510 nM; for `COc1ccc(CN(C)CCCc2ccccc2NC(=O)c2cccc3c(O)c4cccc(OC)c4nc23)cc1OC` it is 585 nM. Still for that read-out and setting: under `COc1ccc(CN(C)CCOc2ccc(NC(=O)c3cccc4c(=O)c5ccccc5[nH]c34)cc2)cc1` stands 650 nM. As to `COc1cc(OCCCN(C)Cc2ccc(OC)c(OC)c2)ccc1NC(=O)c1cccc2c(O)c3cccc(F)c3nc12`, the EC50 in the assay on CHRC5 cell line [1] (read-out: EC50) was 30 nM. Still for that read-out and setting: the figure for `CN(CCOc1ccc(NC(=O)c2cccc3c(=O)c4ccccc4[nH]c23)cc1)Cc1ccc(F)cc1` is 930 nM; for `CN(CCOc1ccc(NC(=O)c2cccc3c(=O)c4ccccc4[nH]c23)cc1)Cc1ccccc1` it is 720 nM. The same measure, in the same setting: under `COc1cc2c(cc1OC)CN(CCc1ccc(NC(=O)c3cccc4c(O)c5cccc(F)c5nc34)cc1)CC2` stands 33 nM. Same read-out and setting: the figure for `COc1cc(CCN(C)Cc2ccc(OC)c(OC)c2)ccc1NC(=O)c1cccc2c(O)c3cccc(F)c3nc12` is 21 nM.

With `COc1ccc(CCN(C)CCOc2ccc(NC(=O)c3cccc4c(Cl)c5ccccc5nc34)cc2)cc1OC`, the EC50 in the assay with CHRC5 cell line [1] (read-out: EC50) worked out at 660 nM. Still for that read-out and setting: under `COc1ccc(CN(C)CCc2ccc(NC(=O)c3cccc4c(O)c5cccc(C)c5nc34)c(C)c2)cc1OC` stands 80 nM; under `COc1cc2c(cc1OC)CN(CCc1cccc(NC(=O)c3cccc4c(O)c5cccc(OC)c5nc34)c1)CC2`, 155 nM. Same read-out and setting: the figure for `COc1ccc(CN(C)CCc2ccccc2NC(=O)c2cccc3c(O)c4cccc(OC)c4nc23)cc1OC` is 465 nM. Same read-out and setting: the figure for `COc1ccc(CN(C)CCCSc2ccc(NC(=O)c3cccc4c(O)c5ccccc5nc34)cc2)cc1OC` is 45 nM.

`COc1ccc(CN(C)CCc2ccc(NC(=O)c3cccc4c(O)c5cccc([N+](=O)[O-])c5nc34)cc2)cc1OC`: the EC50 with CHRC5 cell line [1] (read-out: EC50) is 195 nM. On the same count and under the same terms, under `COc1ccc(CN(C)CCCCc2ccc(NC(=O)c3cccc4c(O)c5cccc(N)c5nc34)cc2)cc1OC` stands 177 nM; under `COc1ccc(CN(C)CCCc2ccc(NC(=O)c3cccc4c(O)c5ccccc5nc34)cc2)cc1OC`, 60 nM; under `COc1ccc(CN(C)CCc2ccc(NC(=O)c3cccc4c(=O)c5ccccc5n(C)c34)cc2)cc1OC`, 210 nM.

As for `COc1cc(CCCN(C)Cc2ccc(OC)c(OC)c2)ccc1NC(=O)c1cccc2c(O)c3cccc(F)c3nc12`, the EC50 in the assay with CHRC5 cell line [1] (read-out: EC50) came to 43 nM. Same read-out and setting: the figure for `CN(CCCCCCCCNC(=O)c1cccc2c(O)c3ccccc3nc12)Cc1ccccc1` is 1100 nM; for `COc1ccc(CN(C)CCc2ccc(NC(=O)c3cccc4c(O)c5ccccc5nc34)cc2)cc1OC` it is 27 nM; for `COc1ccc(CCN(C)CCOc2ccc(NC(=O)c3cccc4c3Nc3ccccc3S4)cc2)cc1OC` it is 180 nM. For `COc1ccc(CN(C)CCc2ccc(NC(=O)c3cccc4c(O)c5cccc(C)c5nc34)cc2)cc1OC`, the EC50 in the assay with CHRC5 cell line [1] (read-out: EC50) turned out to be 21 nM. Take `COc1cc2c(cc1OC)CN(CCc1ccc(NC(=O)c3cccc4c(=O)c5cccc(OC)c5[nH]c34)cc1)CC2`: the EC50 in the assay on CHRC5 cell line [1] (read-out: EC50) turned out to be 21 nM. On the same count and under the same terms, the figure for `COc1ccc(CN(C)CCCOc2ccc(NC(=O)c3cccc4c(O)c5ccccc5nc34)cc2)cc1OC` is 36 nM.

Turning to `Cc1ccc(CN(C)CCOc2ccc(NC(=O)c3cccc4c(=O)c5ccccc5[nH]c34)cc2)cc1`, the EC50 in the assay on CHRC5 cell line [1] (read-out: EC50) worked out at 240 nM. As to `COc1ccc(CN(C)CCc2ccc(NC(=O)c3cccc4c(O)c5cccc(OC)c5nc34)cc2)cc1OC`, the EC50 in the assay with CHRC5 cell line [1] (read-out: EC50) came to 21 nM.

As to `COc1ccc2nc3c(C(=O)Nc4ccc(CCCCN(C)Cc5ccc(OC)c(OC)c5)cc4)cccc3c(O)c2c1`, the EC50 in the assay with CHRC5 cell line [1] (read-out: EC50) is 120 nM. Same read-out and setting: under `CSc1ccc(CN(C)CCOc2ccc(NC(=O)c3cccc4c(O)c5ccccc5nc34)cc2)cc1` stands 690 nM; under `CCN(CCOc1ccc(NC(=O)c2cccc3c(=O)c4ccccc4[nH]c23)cc1)Cc1ccccc1`, 110 nM. On the same count and under the same terms, under `COc1ccc(CN(C)CCOc2ccc(NC(=O)c3cccc4c(O)c5cccc(OC)c5nc34)c(C)c2)cc1OC` stands 280 nM; under `O=C(Nc1ccc(OCCCN2CCc3ccccc3C2)cc1)c1cccc2c(=O)c3ccccc3[nH]c12`, 210 nM. As for `COc1ccc(CCN(C)CCCN2CCC(NC(=O)c3cccc4c(=O)c5ccccc5[nH]c34)CC2)cc1OC`, the EC50 entry with CHRC5 cell line [2] was “Not Active”.

For the molecule `COc1ccc(CN(C)C/C=C/c2ccc(NC(=O)c3cccc4c(O)c5ccccc5nc34)cc2)cc1OC`, in the assay with CHRC5 cell line [1] (read-out: EC50), the half-maximal effective concentration (EC50) came to 270 nM.

`COc1ccc(CNCCCOc2ccc(NC(=O)c3cccc4c(=O)c5ccccc5[nH]c34)cc2)cc1OC`: in the assay with CHRC5 cell line [1] (read-out: EC50), the EC50 was 525 nM.

Turning to `COc1ccc(CCN(C)CCOc2ccc(NC(=O)c3cccc4cc5ccccc5nc34)cc2)cc1OC`, the EC50 result with CHRC5 cell line [3] is “Toxic”. Turning to `COc1ccc(CN(C)CCOc2ccc(NC(=O)c3cccc4nc5ccccc5nc34)cc2)cc1OC`, the EC50 in the assay on CHRC5 cell line [1] (read-out: EC50) is 330 nM. For `COc1ccc(CCN(C)CCCC(C#N)(c2ccc(OC)c(OC)c2)C(C)C)cc1OC` (stereo not given), the EC50 in the assay on CHRC5 cell line [1] turned out to be 3000 nM. In the case of `COc1ccc(CN(C)CCCc2cccc(NC(=O)c3cccc4c(O)c5cccc(OC)c5nc34)c2)cc1OC`, in the assay with CHRC5 cell line [1] (read-out: EC50), the EC50 was 45 nM. On the same count and under the same terms, the figure for `COc1ccc(CCN(C)CCOc2ccc(NC(=O)c3cccn4c(=O)c5ccccc5nc34)cc2)cc1OC` is 210 nM.

For `CCN(CC)CCOc1ccc(NC(=O)c2cccc3c(=O)c4ccccc4[nH]c23)cc1`, in the assay on CHRC5 cell line [2], the EC50 result is on record as “Not Active”. With `COc1ccc(CCN(C)CCOc2ccc(NC(=O)c3cccc4c3C(=O)c3ccccc3C4=O)cc2)cc1OC`, the EC50 in the assay on CHRC5 cell line [1] (read-out: EC50) was 1500 nM. Same read-out and setting: the figure for `COc1cc(OC)c2nc3c(C(=O)Nc4ccc(CCN(C)Cc5ccc(OC)c(OC)c5)cc4)cccc3c(O)c2c1` is 22 nM; for `COc1ccc(CCN(C)CCOc2ccc(NC(=O)c3cccc4c(=O)c5ccccc5sc34)cc2)cc1OC` it is 90 nM; for `CN(CCOc1ccc(NC(=O)c2cccc3c(=O)c4ccccc4[nH]c23)cc1)Cc1ccc2c(c1)OCO2` it is 550 nM.

Consider `COc1ccc(CN(C)CCc2ccc(NC(=O)c3cccc4c(O)c5cccc(F)c5nc34)c(C)c2)cc1OC`, for which the EC50 in the assay with CHRC5 cell line [1] (read-out: EC50) was 88 nM. Still for that read-out and setting: the figure for `COc1ccc(CN(C)CCCOc2ccc(NC(=O)c3cccc4c(O)c5cccc(C)c5nc34)c(C)c2)cc1OC` is 93 nM. On to `COc1ccc(CCN(C)CCCN2CCN(C(=O)c3cccc4c(O)c5ccccc5nc34)CC2)cc1OC`, for which the EC50 entry in the assay with CHRC5 cell line [2] is listed as “Not Active”. Turning to `COc1ccc(CN(C)Cc2ccc(NC(=O)c3cccc4c(O)c5ccccc5nc34)cc2)cc1OC`, the EC50 with CHRC5 cell line [1] (read-out: EC50) stood at 370 nM. Still for that read-out and setting: the figure for `COc1cc2c(cc1OC)CN(CCCc1cccc(NC(=O)c3cccc4c(O)c5cccc(OC)c5nc34)c1)CC2` is 48 nM; for `COc1ccc(CN(C)CCCCCc2ccc(NC(=O)c3cccc4c(O)c5ccccc5nc34)cc2)cc1OC` it is 150 nM. On the same count and under the same terms, under `COc1cc2c(cc1OC)CN(CCc1ccccc1NC(=O)c1cccc3c(O)c4cccc(OC)c4nc13)CC2` stands 305 nM; under `COc1cc(OCCCN(C)Cc2ccc(OC)c(OC)c2)ccc1NC(=O)c1cccc2c(O)c3cccc(C)c3nc12`, 40 nM. Regarding `COc1ccc(CN(C)CCCCc2ccc(NC(=O)c3cccc4c(O)c5ccccc5nc34)cc2)cc1OC`, the EC50 in the assay with CHRC5 cell line [1] (read-out: EC50) is 30 nM.

Turning to `COc1ccc(CN(C)CCOc2ccc(NC(=O)c3cccc4c(=O)cc(-c5ccccc5)[nH]c34)cc2)cc1OC`, in the assay on CHRC5 cell line [1] (read-out: EC50), the EC50 came out at 330 nM.

For `COc1ccc(CCN(C)CCOc2ccc(NC(=O)c3cccc4c(=O)c5ccccc5oc34)cc2)cc1OC`, the EC50 in the assay with CHRC5 cell line [1] (read-out: EC50) was 180 nM. `COc1ccc(CCN(C)CCCOc2ccc(NC(=O)c3cccc4c(=O)c5ccccc5[nH]c34)cc2)cc1OC`: the EC50 in the assay on CHRC5 cell line [1] (read-out: EC50) is 90 nM.

Regarding `COc1ccc(CN(C)CCCOc2ccc(NC(=O)c3cccc4c(O)c5cccc(F)c5nc34)c(C)c2)cc1OC`, the EC50 in the assay on CHRC5 cell line [1] (read-out: EC50) was determined as 63 nM. Same read-out and setting: the figure for `COc1ccc(CCN(C)CCOc2ccc(NC(=O)c3cccc4c3Oc3ccccc3O4)cc2)cc1OC` is 460 nM; for `COc1cc(CCCN(C)Cc2ccc(OC)c(OC)c2)ccc1NC(=O)c1cccc2c(O)c3cccc(OC)c3nc12` it is 37 nM; for `CCc1cc(OCCCN(C)Cc2ccc(OC)c(OC)c2)ccc1NC(=O)c1cccc2c(O)c3cccc(F)c3nc12` it is 90 nM. Same read-out and setting: the figure for `COc1ccc(CN(C)C/C=C/Cc2ccc(NC(=O)c3cccc4c(O)c5ccccc5nc34)cc2)cc1OC` is 150 nM. Same read-out and setting: the figure for `CN(CCOc1ccc(NC(=O)c2cccc3c(=O)c4ccccc4[nH]c23)cc1)Cc1ccc(C(F)(F)F)cc1` is 800 nM. Turning to `COc1ccc(CN(C)CCc2ccc(NC(=O)c3cccc4c(O)c5cccc(F)c5nc34)cc2)cc1OC`, the EC50 with CHRC5 cell line [1] (read-out: EC50) stood at 18 nM. Still for that read-out and setting: the figure for `COc1ccc(CN(C)CCOc2ccc(NC(=O)c3cccc4c(O)c5ccccc5nc34)cc2)cc1OC` is 90 nM.
